Data: patent publication US20230085307A1, “PYRIDAZINONE COMPOUND AND HERBICIDE” (NISSAN CHEMICAL CORPORATION, priority 2019, published 2023)

System: green foxtail
Test: Test Example 5: herbicidal effect by foliage application, plastic box (Table 20, symbol G)
Format: in vivo, green foxtail (Setaria viridis)
Settings: foliage application, 320 g/ha, evaluated three weeks after application
Procedure, shortened: (§1)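 Plants were sown into sterilized diluvial soil under about 1.5 cm cover and kept in a greenhouse at 25° C. to 30° C. Fourteen days on, foliage received an even spray of the diluted emulsion. Herbicidal or crop effect was judged three weeks afterwards.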

Structure (SMILES)	herbicidal effect on G: green foxtail (criteria 0-5)
C=Cc1ccc2sc(-c3ccccc3OC)c(-c3c(O)c(C)nn(C)c3=O)c2c1 [2-185]	3 (Herbicidal rate of 40% or more and less than 70%)
Cc1nn(C)c(=O)c(-c2c(-c3ccccc3)sc3ccc(F)cc23)c1O [2-197]	5 (Herbicidal rate of 90% or more (almost completely withered))
CCCC(=O)Oc1c(C)nn(C)c(=O)c1-c1c(-c2ccccc2)sc2ccc(F)cc12 [2-198]	4 (Herbicidal rate of 70% or more and less than 90%)

System: Japanese bulrush
Test: Test Example 2: herbicidal activity, application during weed generation under submerged conditions (Table 17, symbol B)
Format: in vivo, Japanese bulrush (Schoenoplectus juncoides)
Settings: AAH 320 g/ha; application during weed generation, submerged conditions
Procedure, shortened: (§2)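 Steps: fill Wagner pots with alluvial soil; add water to give 4 cm depth; sow the species mixed; grow under glass at 25–30° C.; at 1–2 leaves apply water-diluted emulsion formulation to the water surface at a fixed herbicide amount; score after 3 weeks.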

Structure (SMILES)	herbicidal effect rating, B: Japanese bulrush
C=Cc1ccc2sc(-c3ccccc3OC)c(-c3c(O)c(C)nn(C)c3=O)c2c1 [2-185]	0 (Herbicidal rate of 5% or less (almost no effect))
Cc1nn(C)c(=O)c(-c2c(-c3ccccc3)sc3ccc(F)cc23)c1O [2-197]	3 (Herbicidal rate of 40% or more and less than 70%)
CCCC(=O)Oc1c(C)nn(C)c(=O)c1-c1c(-c2ccccc2)sc2ccc(F)cc12 [2-198]	3 (Herbicidal rate of 40% or more and less than 70%)

System: wild oat
Test: Test Example 4: herbicidal effect by soil treatment (Table 19, symbol I)
Format: in vivo, wild oat (Avena fatua)
Settings: amount of applied herbicide 320 g/ha
Procedure, shortened: (§3)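 Pre-emergence style soil spray: seeds under ~1.5 cm sterilized diluvial soil received a uniform coat of emulsion diluted to the predetermined herbicide amount. Greenhouse 25–30° C; readout at week three on previously defined criteria.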

Structure (SMILES)	I: wild oat, herbicidal effect rating
C=Cc1ccc2sc(-c3ccccc3OC)c(-c3c(O)c(C)nn(C)c3=O)c2c1 [2-185]	0 (Herbicidal rate of 5% or less (almost no effect))
Cc1nn(C)c(=O)c(-c2c(-c3ccccc3)sc3ccc(F)cc23)c1O [2-197]	1 (Herbicidal rate of 5% or more and less than 20%)
CCCC(=O)Oc1c(C)nn(C)c(=O)c1-c1c(-c2ccccc2)sc2ccc(F)cc12 [2-198]	4 (Herbicidal rate of 70% or more and less than 90%)

System: southern crabgrass
Test: Test Example 5: herbicidal effect by foliage application, plastic box (Table 20, symbol F)
Format: in vivo, southern crabgrass (Digitaria ciliaris)
Settings: foliage application, 320 g/ha, evaluated three weeks after application
Procedure, shortened: as §1

Structure (SMILES)	herbicidal effect on F: southern crabgrass (criteria 0-5)
C=Cc1ccc2sc(-c3ccccc3OC)c(-c3c(O)c(C)nn(C)c3=O)c2c1 [2-185]	2 (Herbicidal rate of 20% or more and less than 40%)
Cc1nn(C)c(=O)c(-c2c(-c3ccccc3)sc3ccc(F)cc23)c1O [2-197]	5 (Herbicidal rate of 90% or more (almost completely withered))
CCCC(=O)Oc1c(C)nn(C)c(=O)c1-c1c(-c2ccccc2)sc2ccc(F)cc12 [2-198]	5 (Herbicidal rate of 90% or more (almost completely withered))

System: oval-leafed pondweed
Test: Test Example 1: herbicidal activity, application before weed generation under submerged conditions (Table 16, symbol C)
Format: in vivo, oval-leafed pondweed (Monochoria vaginalis)
Settings: 320 g/ha applied herbicide
Procedure, shortened: (§4)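 Emulsion formulation, water-diluted to set dose, was put onto the flooded surface (4 cm depth, alluvial soil) the same day weeds were sown and 2.5-leaf rice transplanted. After 3 weeks at 25-30 °C under glass, each species was rated 0 (≤5% kill) to 5 (≥90% kill).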

Structure (SMILES)	Herbicidal effect on C: oval-leafed pondweed (grade 0-5)
C=Cc1ccc2sc(-c3ccccc3OC)c(-c3c(O)c(C)nn(C)c3=O)c2c1 [2-185]	5 (Herbicidal rate of 90% or more (almost completely withered))
Cc1nn(C)c(=O)c(-c2c(-c3ccccc3)sc3ccc(F)cc23)c1O [2-197]	3 (Herbicidal rate of 40% or more and less than 70%)
CCCC(=O)Oc1c(C)nn(C)c(=O)c1-c1c(-c2ccccc2)sc2ccc(F)cc12 [2-198]	3 (Herbicidal rate of 40% or more and less than 70%)

System: Japanese bulrush
Test: Test Example 1: herbicidal activity, application before weed generation under submerged conditions (Table 16, symbol B)
Format: in vivo, Japanese bulrush (Schoenoplectus juncoides)
Settings: 320 g/ha applied herbicide
Procedure, shortened: as §4

Structure (SMILES)	Herbicidal effect on B: Japanese bulrush (grade 0-5)
C=Cc1ccc2sc(-c3ccccc3OC)c(-c3c(O)c(C)nn(C)c3=O)c2c1 [2-185]	5 (Herbicidal rate of 90% or more (almost completely withered))
Cc1nn(C)c(=O)c(-c2c(-c3ccccc3)sc3ccc(F)cc23)c1O [2-197]	3 (Herbicidal rate of 40% or more and less than 70%)
CCCC(=O)Oc1c(C)nn(C)c(=O)c1-c1c(-c2ccccc2)sc2ccc(F)cc12 [2-198]	3 (Herbicidal rate of 40% or more and less than 70%)

System: oval-leafed pondweed
Test: Test Example 2: herbicidal activity, application during weed generation under submerged conditions (Table 17, symbol C)
Format: in vivo, oval-leafed pondweed (Monochoria vaginalis)
Settings: AAH 320 g/ha; application during weed generation, submerged conditions
Procedure, shortened: as §2

Structure (SMILES)	herbicidal effect rating, C: oval-leafed pondweed
C=Cc1ccc2sc(-c3ccccc3OC)c(-c3c(O)c(C)nn(C)c3=O)c2c1 [2-185]	0 (Herbicidal rate of 5% or less (almost no effect))
Cc1nn(C)c(=O)c(-c2c(-c3ccccc3)sc3ccc(F)cc23)c1O [2-197]	4 (Herbicidal rate of 70% or more and less than 90%)
CCCC(=O)Oc1c(C)nn(C)c(=O)c1-c1c(-c2ccccc2)sc2ccc(F)cc12 [2-198]	4 (Herbicidal rate of 70% or more and less than 90%)

System: chickweed
Test: Test Example 4: herbicidal effect by soil treatment (Table 19, symbol P)
Format: in vivo, common chickweed (Stellaria media)
Settings: amount of applied herbicide 320 g/ha
Procedure, shortened: as §3

Structure (SMILES)	P: chickweed, herbicidal effect rating
C=Cc1ccc2sc(-c3ccccc3OC)c(-c3c(O)c(C)nn(C)c3=O)c2c1 [2-185]	0 (Herbicidal rate of 5% or less (almost no effect))
Cc1nn(C)c(=O)c(-c2c(-c3ccccc3)sc3ccc(F)cc23)c1O [2-197]	3 (Herbicidal rate of 40% or more and less than 70%)
CCCC(=O)Oc1c(C)nn(C)c(=O)c1-c1c(-c2ccccc2)sc2ccc(F)cc12 [2-198]	4 (Herbicidal rate of 70% or more and less than 90%)

System: barnyard grass
Test: Test Example 5: herbicidal effect by foliage application, plastic box (Table 20, symbol H)
Format: in vivo, barnyard grass (Echinochloa crus-galli)
Settings: foliage application, 320 g/ha, evaluated three weeks after application
Procedure, shortened: as §1

Structure (SMILES)	herbicidal effect on H: barnyard grass (criteria 0-5)
C=Cc1ccc2sc(-c3ccccc3OC)c(-c3c(O)c(C)nn(C)c3=O)c2c1 [2-185]	0 (Herbicidal rate of 5% or less (almost no effect))
Cc1nn(C)c(=O)c(-c2c(-c3ccccc3)sc3ccc(F)cc23)c1O [2-197]	5 (Herbicidal rate of 90% or more (almost completely withered))
CCCC(=O)Oc1c(C)nn(C)c(=O)c1-c1c(-c2ccccc2)sc2ccc(F)cc12 [2-198]	3 (Herbicidal rate of 40% or more and less than 70%)

System: barnyard grass
Test: Test Example 4: herbicidal effect by soil treatment (Table 19, symbol H)
Format: in vivo, barnyard grass (Echinochloa crus-galli)
Settings: amount of applied herbicide 320 g/ha
Procedure, shortened: as §3

Structure (SMILES)	H: barnyard grass, herbicidal effect rating
C=Cc1ccc2sc(-c3ccccc3OC)c(-c3c(O)c(C)nn(C)c3=O)c2c1 [2-185]	0 (Herbicidal rate of 5% or less (almost no effect))
Cc1nn(C)c(=O)c(-c2c(-c3ccccc3)sc3ccc(F)cc23)c1O [2-197]	5 (Herbicidal rate of 90% or more (almost completely withered))
CCCC(=O)Oc1c(C)nn(C)c(=O)c1-c1c(-c2ccccc2)sc2ccc(F)cc12 [2-198]	4 (Herbicidal rate of 70% or more and less than 90%)

System: green foxtail
Test: Test Example 4: herbicidal effect by soil treatment (Table 19, symbol G)
Format: in vivo, green foxtail (Setaria viridis)
Settings: amount of applied herbicide 320 g/ha
Procedure, shortened: as §3

Structure (SMILES)	G: green foxtail, herbicidal effect rating
C=Cc1ccc2sc(-c3ccccc3OC)c(-c3c(O)c(C)nn(C)c3=O)c2c1 [2-185]	0 (Herbicidal rate of 5% or less (almost no effect))
Cc1nn(C)c(=O)c(-c2c(-c3ccccc3)sc3ccc(F)cc23)c1O [2-197]	4 (Herbicidal rate of 70% or more and less than 90%)
CCCC(=O)Oc1c(C)nn(C)c(=O)c1-c1c(-c2ccccc2)sc2ccc(F)cc12 [2-198]	5 (Herbicidal rate of 90% or more (almost completely withered))

System: wild oat
Test: Test Example 5: herbicidal effect by foliage application, plastic box (Table 20, symbol I)
Format: in vivo, wild oat (Avena fatua)
Settings: foliage application, 320 g/ha, evaluated three weeks after application
Procedure, shortened: as §1

Structure (SMILES)	herbicidal effect on I: wild oat (criteria 0-5)
C=Cc1ccc2sc(-c3ccccc3OC)c(-c3c(O)c(C)nn(C)c3=O)c2c1 [2-185]	0 (Herbicidal rate of 5% or less (almost no effect))
Cc1nn(C)c(=O)c(-c2c(-c3ccccc3)sc3ccc(F)cc23)c1O [2-197]	4 (Herbicidal rate of 70% or more and less than 90%)
CCCC(=O)Oc1c(C)nn(C)c(=O)c1-c1c(-c2ccccc2)sc2ccc(F)cc12 [2-198]	4 (Herbicidal rate of 70% or more and less than 90%)

System: chickweed
Test: Test Example 5: herbicidal effect by foliage application, plastic box (Table 20, symbol P)
Format: in vivo, common chickweed (Stellaria media)
Settings: foliage application, 320 g/ha, evaluated three weeks after application
Procedure, shortened: as §1

Structure (SMILES)	herbicidal effect on P: chickweed (criteria 0-5)
C=Cc1ccc2sc(-c3ccccc3OC)c(-c3c(O)c(C)nn(C)c3=O)c2c1 [2-185]	5 (Herbicidal rate of 90% or more (almost completely withered))
Cc1nn(C)c(=O)c(-c2c(-c3ccccc3)sc3ccc(F)cc23)c1O [2-197]	5 (Herbicidal rate of 90% or more (almost completely withered))
CCCC(=O)Oc1c(C)nn(C)c(=O)c1-c1c(-c2ccccc2)sc2ccc(F)cc12 [2-198]	5 (Herbicidal rate of 90% or more (almost completely withered))

System: redroot pigweed
Test: Test Example 4: herbicidal effect by soil treatment (Table 19, symbol N)
Format: in vivo, redroot pigweed (Amaranthus retroflexus)
Settings: amount of applied herbicide 320 g/ha
Procedure, shortened: as §3

Structure (SMILES)	N: redroot pigweed, herbicidal effect rating
C=Cc1ccc2sc(-c3ccccc3OC)c(-c3c(O)c(C)nn(C)c3=O)c2c1 [2-185]	5 (Herbicidal rate of 90% or more (almost completely withered))
Cc1nn(C)c(=O)c(-c2c(-c3ccccc3)sc3ccc(F)cc23)c1O [2-197]	5 (Herbicidal rate of 90% or more (almost completely withered))
CCCC(=O)Oc1c(C)nn(C)c(=O)c1-c1c(-c2ccccc2)sc2ccc(F)cc12 [2-198]	5 (Herbicidal rate of 90% or more (almost completely withered))

System: persian speedwell
Test: Test Example 5: herbicidal effect by foliage application, plastic box (Table 20, symbol R)
Format: in vivo, Persian speedwell (Veronica persica)
Settings: foliage application, 320 g/ha, evaluated three weeks after application
Procedure, shortened: as §1

Structure (SMILES)	herbicidal effect on R: persian speedwell (criteria 0-5)
C=Cc1ccc2sc(-c3ccccc3OC)c(-c3c(O)c(C)nn(C)c3=O)c2c1 [2-185]	4 (Herbicidal rate of 70% or more and less than 90%)
Cc1nn(C)c(=O)c(-c2c(-c3ccccc3)sc3ccc(F)cc23)c1O [2-197]	5 (Herbicidal rate of 90% or more (almost completely withered))
CCCC(=O)Oc1c(C)nn(C)c(=O)c1-c1c(-c2ccccc2)sc2ccc(F)cc12 [2-198]	5 (Herbicidal rate of 90% or more (almost completely withered))

System: windgrass
Test: Test Example 5: herbicidal effect by foliage application, plastic box (Table 20, symbol L)
Format: in vivo, windgrass (Apera spica-venti)
Settings: foliage application, 320 g/ha, evaluated three weeks after application
Procedure, shortened: as §1

Structure (SMILES)	herbicidal effect on L: windgrass (criteria 0-5)
C=Cc1ccc2sc(-c3ccccc3OC)c(-c3c(O)c(C)nn(C)c3=O)c2c1 [2-185]	1 (Herbicidal rate of 5% or more and less than 20%)
Cc1nn(C)c(=O)c(-c2c(-c3ccccc3)sc3ccc(F)cc23)c1O [2-197]	4 (Herbicidal rate of 70% or more and less than 90%)
CCCC(=O)Oc1c(C)nn(C)c(=O)c1-c1c(-c2ccccc2)sc2ccc(F)cc12 [2-198]	4 (Herbicidal rate of 70% or more and less than 90%)
